Several values for one entry are separate records, joined by “and”; a condition that tells them apart may be missing. Equal values may be shown once. Toxic doses and inconclusive results are not listed.
Tested on: AKR/Lw mice, AKR lymphoma ip, median survival T/C
Assay: NCI In Vivo Anticancer Drug Screen. Data for tumor model Lymphoma AKR (Transplanted) (intraperitoneal) in AKR/Lw mice
Conditions: endpoint: median survival time, higher = longer survival
Method: The antitumor activity of compounds was measured in mice bearing transplantable tumors. Survival or tumor size were measured and the results are expressed as the measurement made in the treated group (T) divided by the measurement made in the vehicle treated control group (C). The tumor model used in this assay is Lymphoma AKR (Transplanted) (intraperitoneal) in AKR/Lw mice

[1] = dose: 6.0 mg/kg/injection, schedule: Q01DX009 (ip), vehicle: saline
[2] = dose: 25.0 mg/kg/injection, schedule: Q01DX001 (ip), vehicle: Klucel (hydroxypropylcellulose) (HPC)
[3] = dose: 25.0 mg/kg/injection, schedule: Q01DX001 (ip), vehicle: saline
[4] = dose: 25.0 mg/kg/injection, schedule: Q04DX003 (ip), vehicle: Klucel (hydroxypropylcellulose) (HPC)
[5] = dose: 50.0 mg/kg/injection, schedule: Q01DX001 (ip), vehicle: Klucel (hydroxypropylcellulose) (HPC)
[6] = dose: 50.0 mg/kg/injection, schedule: Q04DX003 (ip), vehicle: Klucel (hydroxypropylcellulose) (HPC)
[7] = dose: 100.0 mg/kg/injection, schedule: Q01DX001 (ip), vehicle: Klucel (hydroxypropylcellulose) (HPC)
[8] = dose: 100.0 mg/kg/injection, schedule: Q04DX003 (ip), vehicle: Klucel (hydroxypropylcellulose) (HPC)
[9] = dose: 50.0 mg/kg/injection, schedule: Q01DX001 (ip), vehicle: saline
[10] = dose: 100.0 mg/kg/injection, schedule: Q01DX001 (ip), vehicle: saline
[11] = dose: 200.0 mg/kg/injection, schedule: Q01DX001 (ip), vehicle: saline
[12] = dose: 200.0 mg/kg/injection, schedule: Q01DX001 (ip), vehicle: Klucel (hydroxypropylcellulose) (HPC)
[13] = dose: 400.0 mg/kg/injection, schedule: Q01DX001 (ip), vehicle: Klucel (hydroxypropylcellulose) (HPC)
[14] = dose: 200.0 mg/kg/injection, schedule: Q04DX003 (ip), vehicle: Klucel (hydroxypropylcellulose) (HPC)

## Cc1c2ccncc2c(C)c2c1[nH]c1ccccc12
dose: 1.2 mg/kg/injection, schedule: Q01DX009 (ip), vehicle: Klucel (hydroxypropylcellulose) (HPC)
  T/C: 87 % of control
dose: 1.25 mg/kg/injection, schedule: Q01DX009 (ip), vehicle: saline
  T/C: 165 % of control
dose: 1.5 mg/kg/injection, schedule: Q01DX009 (ip), vehicle: saline
  T/C: 90 % of control and 118 % of control
dose: 3.0 mg/kg/injection, schedule: Q01DX009 (ip), vehicle: saline
  T/C: 104 % of control and 121 % of control
dose: 5.0 mg/kg/injection, schedule: Q01DX009 (ip), vehicle: saline
  T/C: 111 % of control
[1]
  T/C: 116 % of control
dose: 7.5 mg/kg/injection, schedule: Q04DX003 (ip), vehicle: Klucel (hydroxypropylcellulose) (HPC)
  T/C: 88 % of control
dose: 7.5 mg/kg/injection, schedule: Q04DX003 (ip), vehicle: saline
  T/C: 96 % of control
dose: 10.0 mg/kg/injection, schedule: Q01DX009 (ip), vehicle: saline
  T/C: 152 % of control
dose: 12.5 mg/kg/injection, schedule: Q01DX001 (ip), vehicle: Klucel (hydroxypropylcellulose) (HPC)
  T/C: 97 % of control
dose: 12.5 mg/kg/injection, schedule: Q01DX001 (ip), vehicle: saline
  T/C: 124 % of control
dose: 15.0 mg/kg/injection, schedule: Q01DX009 (ip), vehicle: Klucel (hydroxypropylcellulose) (HPC)
  T/C: 103 % of control
dose: 15.0 mg/kg/injection, schedule: Q04DX003 (ip), vehicle: Klucel (hydroxypropylcellulose) (HPC)
  T/C: 119 % of control
dose: 15.0 mg/kg/injection, schedule: Q04DX003 (ip), vehicle: saline
  T/C: 112 % of control
dose: 18.75 mg/kg/injection, schedule: Q04DX003 (ip), vehicle: saline
  T/C: 111 % of control and 116 % of control and 117 % of control
dose: 18.8 mg/kg/injection, schedule: Q04DX003 (ip), vehicle: Klucel (hydroxypropylcellulose) (HPC)
  T/C: 105 % of control
dose: 20.0 mg/kg/injection, schedule: Q01DX009 (ip), vehicle: Klucel (hydroxypropylcellulose) (HPC)
  T/C: 86 % of control
dose: 20.0 mg/kg/injection, schedule: Q01DX009 (ip), vehicle: saline
  T/C: 111 % of control
dose: 20.0 mg/kg/injection, schedule: Q04DX003 (ip), vehicle: Klucel (hydroxypropylcellulose) (HPC)
  T/C: 119 % of control
[2]
  T/C: 123 % of control
[3]
  T/C: 120 % of control
dose: 25.0 mg/kg/injection, schedule: Q01DX005 (ip), vehicle: water
  T/C: 263 % of control
[4]
  T/C: 153 % of control
dose: 30.0 mg/kg/injection, schedule: Q04DX003 (ip), vehicle: Klucel (hydroxypropylcellulose) (HPC)
  T/C: 104 % of control and 111 % of control
dose: 35.0 mg/kg/injection, schedule: Q04DX003 (ip), vehicle: Klucel (hydroxypropylcellulose) (HPC)
  T/C: 116 % of control
[5]
  T/C: 118 % of control
dose: 50.0 mg/kg/injection, schedule: Q01DX005 (ip), vehicle: water
  T/C: 197 % of control
[6]
  T/C: 153 % of control
dose: 50.0 mg/kg/injection, schedule: Q04DX003 (ip), vehicle: water
  T/C: 226 % of control
dose: 75.0 mg/kg/injection, schedule: Q01DX001 (ip), vehicle: Klucel (hydroxypropylcellulose) (HPC)
  T/C: 123 % of control
[7]
  T/C: 111 % of control and 121 % of control
[8]
  T/C: 107 % of control
dose: 100.0 mg/kg/injection, schedule: Q04DX003 (ip), vehicle: saline
  T/C: 100 % of control
dose: 100.0 mg/kg/injection, schedule: Q04DX003 (ip), vehicle: water
  T/C: 315 % of control
dose: 150.0 mg/kg/injection, schedule: Q01DX001 (ip), vehicle: Klucel (hydroxypropylcellulose) (HPC)
  T/C: 102 % of control
dose: 150.0 mg/kg/injection, schedule: Q01DX001 (ip), vehicle: saline
  T/C: 115 % of control

## Cc1cnc2c(N)[nH]nc2n1
[2]
  T/C: 100 % of control
[5]
  T/C: 97 % of control
[7]
  T/C: 106 % of control

## N=c1ccn2c(n1)OC1C(O)C(CO)OC12 (stereo not drawn)
[1]
  T/C: 105 % of control
dose: 6.2 mg/kg/injection, schedule: Q01DX009 (ip), vehicle: saline
  T/C: 100 % of control
dose: 12.0 mg/kg/injection, schedule: Q01DX009 (ip), vehicle: saline
  T/C: 105 % of control
dose: 12.5 mg/kg/injection, schedule: Q01DX009 (ip), vehicle: saline
  T/C: 114 % of control and 120 % of control
dose: 25.0 mg/kg/injection, schedule: Q04DX003 (ip), vehicle: saline
  T/C: 100 % of control
dose: 37.5 mg/kg/injection, schedule: Q01DX009 (ip), vehicle: saline
  T/C: 111 % of control
[9]
  T/C: 111 % of control
dose: 50.0 mg/kg/injection, schedule: Q04DX003 (ip), vehicle: saline
  T/C: 102 % of control
[10]
  T/C: 91 % of control and 117 % of control
[11]
  T/C: 105 % of control and 111 % of control
dose: 300.0 mg/kg/injection, schedule: Q01DX001 (ip), vehicle: saline
  T/C: 123 % of control
dose: 300.0 mg/kg/injection, schedule: Q01DX009 (ip), vehicle: saline
  T/C: 153 % of control
dose: 500.0 mg/kg/injection, schedule: Q01DX009 (ip), vehicle: saline
  T/C: 105 % of control
dose: 600.0 mg/kg/injection, schedule: Q04DX003 (ip), vehicle: saline
  T/C: 168 % of control

## CC(=O)CC(=O)c1ccccc1.CC(=O)CC(=O)c1ccccc1.CC(=O)CC(=O)c1ccccc1.[Co]
[2]
  T/C: 100 % of control
[5]
  T/C: 100 % of control

## COC(=O)C1CC(=O)C2(C)CCc3c(ccc4cc(OC)ccc34)C12 (stereo not drawn)
dose: 100.0 mg/kg/injection, schedule: Q01DX001 (sc), vehicle: steriod suspending solution
  T/C: 109 % of control
dose: 200.0 mg/kg/injection, schedule: Q01DX001 (sc), vehicle: steriod suspending solution
  T/C: 104 % of control

## COc1ccc(-n2c(=S)[nH]c3ccccc3c2=O)cc1
dose: 75.0 mg/kg/injection, schedule: Q04DX003 (ip), vehicle: Klucel (hydroxypropylcellulose) (HPC)
  T/C: 88 % of control
[7]
  T/C: 106 % of control
dose: 150.0 mg/kg/injection, schedule: Q04DX003 (ip), vehicle: Klucel (hydroxypropylcellulose) (HPC)
  T/C: 86 % of control
[12]
  T/C: 87 % of control
[13]
  T/C: 90 % of control

## COc1ccc(S(=O)O)cc1NC(C)=O
dose: 50.0 mg/kg/injection, schedule: Q04DX003 (ip), vehicle: other
  T/C: 95 % of control
[10]
  T/C: 107 % of control
dose: 100.0 mg/kg/injection, schedule: Q04DX003 (ip), vehicle: other
  T/C: 97 % of control
[11]
  T/C: 101 % of control
dose: 200.0 mg/kg/injection, schedule: Q04DX003 (ip), vehicle: other
  T/C: 95 % of control

## Cc1c(C(=O)O)cc2n(c1=O)Cc1cc3ccccc3nc1-2
[9]
  T/C: 102 % of control
dose: 50.0 mg/kg/injection, schedule: Q04DX003 (ip), vehicle: saline with Tween-80
  T/C: 93 % of control
[10]
  T/C: 100 % of control
dose: 100.0 mg/kg/injection, schedule: Q04DX003 (ip), vehicle: saline with Tween-80
  T/C: 100 % of control
[11]
  T/C: 94 % of control

## CCn1c(O)c(C=N)c(=O)n(CC)c1=O
dose: 12.0 mg/kg/injection, schedule: Q01DX001 (ip), vehicle: saline
  T/C: 97 % of control
dose: 12.5 mg/kg/injection, schedule: Q04DX003 (ip), vehicle: Klucel (hydroxypropylcellulose) (HPC)
  T/C: 100 % of control
[3]
  T/C: 111 % of control
[4]
  T/C: 93 % of control
[9]
  T/C: 94 % of control
[6]
  T/C: 97 % of control

## COC(=O)C1(C)CCC(c2ccc(OC)cc2)C(CC(=O)O)C1=O (stereo not drawn)
[6]
  T/C: 100 % of control
[7]
  T/C: 100 % of control
[8]
  T/C: 100 % of control
[12]
  T/C: 113 % of control
[13]
  T/C: 105 % of control

## O=C1CSC(=S)N1c1ccco1
[4]
  T/C: 109 % of control
dose: 50.0 mg/kg/injection, schedule: Q01DX009 (ip), vehicle: Klucel (hydroxypropylcellulose) (HPC)
  T/C: 97 % of control
[6]
  T/C: 92 % of control
[7]
  T/C: 103 % of control
dose: 100.0 mg/kg/injection, schedule: Q01DX009 (ip), vehicle: Klucel (hydroxypropylcellulose) (HPC)
  T/C: 95 % of control
[8]
  T/C: 90 % of control
[12]
  T/C: 96 % of control
dose: 200.0 mg/kg/injection, schedule: Q01DX009 (ip), vehicle: Klucel (hydroxypropylcellulose) (HPC)
  T/C: 102 % of control
[14]
  T/C: 88 % of control

## C=CCN(CC=C)c1ccc(N(CC)CC)cc1
[4]
  T/C: 100 % of control
[6]
  T/C: 94 % of control
[7]
  T/C: 96 % of control
[8]
  T/C: 97 % of control
[12]
  T/C: 92 % of control
[14]
  T/C: 100 % of control

Reference: PubChem BioAssay AID190 (DTP/NCI, 2004)
